From paper PMC11751439, “Targeting SRSF1 improves cancer immunotherapy by dually acting on CD8^+T and tumor cells” (Signal Transduction and Targeted Therapy, 2025)

Experiments:
[1] = target: T1, SRSF1 (recombinant SRSF1; serine arginine-rich splicing factor 1) (Homo sapiens, UniProt Q07955); experiment: SPR; format: binding; details: purified SRSF1 variant; unit inferred, M taken from the wild-type value
T1 construct: recombinant purified SRSF1; RRM1 domain targeted in screening

[2] = target: T1, SRSF1 (recombinant SRSF1; serine arginine-rich splicing factor 1); experiment: SPR (Biacore T100); format: binding

T1 sequence (Q07955 2-248): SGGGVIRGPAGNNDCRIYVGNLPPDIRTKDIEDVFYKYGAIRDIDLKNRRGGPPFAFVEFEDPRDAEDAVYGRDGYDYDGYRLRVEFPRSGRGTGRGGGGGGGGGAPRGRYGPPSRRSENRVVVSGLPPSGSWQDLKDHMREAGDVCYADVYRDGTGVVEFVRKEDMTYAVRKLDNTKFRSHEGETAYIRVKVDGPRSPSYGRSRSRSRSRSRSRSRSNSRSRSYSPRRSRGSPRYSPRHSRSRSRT

Kd [1]: 37.2 µM | Kd [2]: 5.13 µM
Structure (SMILES): O=C(/C=C/c1ccc(O)c(O)c1)c1ccc(O)c(O)c1O [TN2008]
